# Data taken from article PMC8745178, “Methyl 2-Halo-4-Substituted-5-Sulfamoyl-Benzoates as High Affinity and Selective Inhibitors of Carbonic Anhydrase IX” (International Journal of Molecular Sciences, 2021).
# What was measured:
# CAI = CAI (Homo sapiens, UniProt P00915); test: fluorescent thermal shift assay (FTSA), CAI; type: binding; conditions: 37 °C; for ΔGintr CAI: converted from Kd_intr, independent of pH; for ΔGobs CAI: converted from Kd_obs, pH 7.0, FTSA
# [1] = determination of pKa of the sulfonamide group by UV-VIS spectra at various pH; type: physicochemical; conditions: for f RSO2NH-, fraction of deprotonated sulfonamide: at pH 7.0, calculated from pKa; for pKa: calculated from spectra at various pH, 37 °C
# CAXIV = CAXIV (Homo sapiens, UniProt Q9ULX7); test: fluorescent thermal shift assay (FTSA), CAXIV; type: binding; conditions: 37 °C; for ΔGintr CAXIV: converted from Kd_intr, independent of pH; for ΔGobs CAXIV: converted from Kd_obs, pH 7.0, FTSA
# Chain of CAXIV (Q9ULX7 16-337): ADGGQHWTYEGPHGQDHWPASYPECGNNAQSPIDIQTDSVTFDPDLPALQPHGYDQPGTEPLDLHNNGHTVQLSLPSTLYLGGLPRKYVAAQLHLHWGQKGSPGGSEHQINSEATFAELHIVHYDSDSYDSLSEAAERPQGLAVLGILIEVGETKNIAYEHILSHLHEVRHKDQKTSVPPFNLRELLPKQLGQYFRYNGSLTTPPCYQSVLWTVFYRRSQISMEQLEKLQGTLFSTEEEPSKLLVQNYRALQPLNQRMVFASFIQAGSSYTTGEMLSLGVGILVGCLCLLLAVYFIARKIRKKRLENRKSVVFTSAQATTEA
# CAII = CAII (Homo sapiens, UniProt P00918); test: fluorescent thermal shift assay (FTSA), CAII; type: binding; conditions: 37 °C; for ΔGintr CAII: converted from Kd_intr, independent of pH; for ΔGobs CAII: converted from Kd_obs, pH 7.0, FTSA
# CAXII = CAXII (Homo sapiens, UniProt O43570); test: fluorescent thermal shift assay (FTSA), CAXII; type: binding; conditions: 37 °C; for ΔGintr CAXII: converted from Kd_intr, independent of pH; for ΔGobs CAXII: converted from Kd_obs, pH 7.0, FTSA
# Chain of CAXII (O43570 25-354): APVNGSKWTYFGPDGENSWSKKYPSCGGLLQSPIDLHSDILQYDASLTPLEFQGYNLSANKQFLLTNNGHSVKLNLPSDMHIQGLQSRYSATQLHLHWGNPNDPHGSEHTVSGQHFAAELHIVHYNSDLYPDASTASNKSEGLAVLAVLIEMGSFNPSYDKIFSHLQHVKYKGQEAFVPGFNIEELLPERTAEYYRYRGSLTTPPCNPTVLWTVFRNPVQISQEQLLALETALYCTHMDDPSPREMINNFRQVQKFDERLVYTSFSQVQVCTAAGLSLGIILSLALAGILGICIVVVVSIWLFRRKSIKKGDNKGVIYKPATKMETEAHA
# CAVII = CAVII (Homo sapiens, UniProt P43166); test: fluorescent thermal shift assay (FTSA), CAVII; type: binding; conditions: 37 °C; for ΔGintr CAVII: converted from Kd_intr, independent of pH; for ΔGobs CAVII: converted from Kd_obs, pH 7.0, FTSA
# Chain of CAVII (P43166 whole entry): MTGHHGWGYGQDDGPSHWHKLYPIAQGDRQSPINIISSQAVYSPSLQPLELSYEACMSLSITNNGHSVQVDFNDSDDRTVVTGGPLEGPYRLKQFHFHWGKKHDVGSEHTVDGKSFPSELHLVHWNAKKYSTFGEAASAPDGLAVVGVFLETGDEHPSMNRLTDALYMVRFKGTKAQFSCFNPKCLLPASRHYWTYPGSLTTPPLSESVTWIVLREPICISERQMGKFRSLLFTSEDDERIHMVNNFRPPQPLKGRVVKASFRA
# CAIV = CAIV (Homo sapiens, UniProt P22748); test: fluorescent thermal shift assay (FTSA), CAIV; type: binding; conditions: 37 °C; for ΔGintr CAIV: converted from Kd_intr, independent of pH; for ΔGobs CAIV: converted from Kd_obs, pH 7.0, FTSA
# Chain of CAIV (P22748 19-312): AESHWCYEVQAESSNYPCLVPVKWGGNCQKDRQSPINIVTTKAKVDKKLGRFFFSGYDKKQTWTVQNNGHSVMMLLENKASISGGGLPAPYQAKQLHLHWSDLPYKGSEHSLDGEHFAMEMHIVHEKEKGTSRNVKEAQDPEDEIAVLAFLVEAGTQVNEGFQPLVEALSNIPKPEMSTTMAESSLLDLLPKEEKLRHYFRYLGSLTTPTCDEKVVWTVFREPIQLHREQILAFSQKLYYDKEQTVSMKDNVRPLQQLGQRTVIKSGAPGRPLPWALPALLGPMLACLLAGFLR
# [2] = solubility observed visually and in absorption spectra; type: physicochemical; parameters: key: low solubility, LS
# CAVI = CAVI (Homo sapiens, UniProt P23280); test: fluorescent thermal shift assay (FTSA), CAVI; type: binding; conditions: 37 °C; for ΔGintr CAVI: converted from Kd_intr, independent of pH; for ΔGobs CAVI: converted from Kd_obs, pH 7.0, FTSA
# Chain of CAVI (P23280 18-308): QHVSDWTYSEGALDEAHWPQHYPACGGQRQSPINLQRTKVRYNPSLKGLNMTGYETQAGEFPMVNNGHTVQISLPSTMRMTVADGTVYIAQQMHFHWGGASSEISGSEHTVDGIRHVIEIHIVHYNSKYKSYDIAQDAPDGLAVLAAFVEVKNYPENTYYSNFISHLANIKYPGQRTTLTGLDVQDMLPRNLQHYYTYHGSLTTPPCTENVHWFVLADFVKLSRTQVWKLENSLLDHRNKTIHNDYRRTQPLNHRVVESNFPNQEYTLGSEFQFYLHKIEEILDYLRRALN
# CAXIII = CAXIII (Homo sapiens, UniProt Q8N1Q1); test: fluorescent thermal shift assay (FTSA), CAXIII; type: binding; conditions: 37 °C; for ΔGobs CAXIII: converted from Kd_obs, pH 7.0, FTSA; for ΔGintr CAXIII: converted from Kd_intr, independent of pH
# Chain of CAXIII (Q8N1Q1 whole entry): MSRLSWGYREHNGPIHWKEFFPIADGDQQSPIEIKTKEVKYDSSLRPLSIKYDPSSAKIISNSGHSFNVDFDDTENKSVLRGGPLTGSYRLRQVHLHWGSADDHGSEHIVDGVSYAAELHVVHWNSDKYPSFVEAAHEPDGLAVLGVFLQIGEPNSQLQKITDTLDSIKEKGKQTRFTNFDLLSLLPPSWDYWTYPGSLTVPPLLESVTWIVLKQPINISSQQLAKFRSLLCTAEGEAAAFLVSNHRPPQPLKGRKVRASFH
# CAVA = CAVA (Homo sapiens, UniProt P35218); test: fluorescent thermal shift assay (FTSA), CAVA; type: binding; conditions: 37 °C
# Chain of CAVA (P35218 39-305): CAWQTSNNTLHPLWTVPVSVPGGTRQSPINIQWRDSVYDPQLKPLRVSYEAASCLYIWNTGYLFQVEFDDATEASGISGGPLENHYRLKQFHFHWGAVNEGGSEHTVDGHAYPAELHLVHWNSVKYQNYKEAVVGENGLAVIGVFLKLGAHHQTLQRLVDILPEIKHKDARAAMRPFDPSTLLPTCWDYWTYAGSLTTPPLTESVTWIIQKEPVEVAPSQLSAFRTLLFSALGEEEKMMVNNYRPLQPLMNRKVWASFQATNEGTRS
# CAVB = CAVB (Homo sapiens, UniProt Q9Y2D0); test: fluorescent thermal shift assay (FTSA), CAVB; type: binding; conditions: 37 °C; for ΔGintr CAVB: converted from Kd_intr, independent of pH; for ΔGobs CAVB: converted from Kd_obs, pH 7.0, FTSA
# Chain of CAVB (Q9Y2D0 34-317): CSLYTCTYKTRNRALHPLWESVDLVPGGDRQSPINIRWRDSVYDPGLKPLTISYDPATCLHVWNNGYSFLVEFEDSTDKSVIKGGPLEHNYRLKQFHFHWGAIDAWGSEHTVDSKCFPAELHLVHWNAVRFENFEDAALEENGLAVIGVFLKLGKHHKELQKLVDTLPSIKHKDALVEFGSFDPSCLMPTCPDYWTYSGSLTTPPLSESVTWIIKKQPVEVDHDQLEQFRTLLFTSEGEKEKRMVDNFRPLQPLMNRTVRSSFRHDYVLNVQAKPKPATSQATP
# CAIX = CAIX (Homo sapiens, UniProt Q16790); test: fluorescent thermal shift assay (FTSA), CAIX; type: binding; conditions: for ΔGobs CAIX: pH 7
# CAIII = CAIII (Homo sapiens, UniProt P07451); test: fluorescent thermal shift assay (FTSA), CAIII; type: binding; conditions: 37 °C
# Chain of CAIII (P07451 whole entry): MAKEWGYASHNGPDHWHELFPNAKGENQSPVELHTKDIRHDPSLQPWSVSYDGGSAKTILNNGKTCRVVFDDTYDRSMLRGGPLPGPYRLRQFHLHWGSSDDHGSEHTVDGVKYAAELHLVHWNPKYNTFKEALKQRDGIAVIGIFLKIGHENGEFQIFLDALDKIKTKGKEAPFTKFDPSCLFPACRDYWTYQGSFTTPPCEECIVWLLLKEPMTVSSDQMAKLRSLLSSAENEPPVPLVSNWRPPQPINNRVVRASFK
# [3] = converted from Kd_intr, independent of pH
# [4] = converted from Kd_obs, pH 7.0, FTSA
# Chain of CAI (P00915 whole entry): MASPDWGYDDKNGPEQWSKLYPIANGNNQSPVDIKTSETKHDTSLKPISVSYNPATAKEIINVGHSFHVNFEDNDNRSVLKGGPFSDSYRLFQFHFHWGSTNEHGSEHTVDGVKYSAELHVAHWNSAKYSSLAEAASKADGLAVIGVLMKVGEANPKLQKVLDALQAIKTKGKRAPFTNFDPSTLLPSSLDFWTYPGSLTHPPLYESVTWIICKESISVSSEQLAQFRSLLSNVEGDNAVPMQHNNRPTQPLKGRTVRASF
Structure (SMILES),ΔGintr CAI (CAI) [kcal/mol],ΔGobs CAI (CAI) [kcal/mol],"f RSO2NH-, fraction of deprotonated sulfonamide [1] [%]",ΔGintr CAXIV (CAXIV) [kcal/mol],ΔGobs CAXIV (CAXIV) [kcal/mol],ΔGintr CAII (CAII) [kcal/mol],ΔGobs CAII (CAII) [kcal/mol],ΔGintr CAXII (CAXII) [kcal/mol],ΔGobs CAXII (CAXII) [kcal/mol],ΔGintr CAVII (CAVII) [kcal/mol],ΔGobs CAVII (CAVII) [kcal/mol],ΔGintr CAIV (CAIV) [kcal/mol],ΔGobs CAIV (CAIV) [kcal/mol],ΔGintr CAVI (CAVI) [kcal/mol],ΔGobs CAVI (CAVI) [kcal/mol],ΔGobs CAXIII (CAXIII) [kcal/mol],ΔGintr CAVB (CAVB) [kcal/mol],ΔGobs CAVB (CAVB) [kcal/mol],ΔGobs CAIX (CAIX) [kcal/mol],pKa [1],further results
"COC(=O)c1cc(S(N)(=O)=O)c(Cl)cc1Sc1ccccc1 [Compound 5a, Methyl 4-chloro-2-(phenylsulfanyl)-5-sulfamoylbenzoate]",-11.2,-7.77,0.4,-14.9,-10.9,-14.5,-10.6,-15.7,-11.7,-14.4,-10.3,-15.3,-11.1,-14.4,-9.51,-10.9,-13.2,-9.37,-12.2,–,solubility [2]: LS; ΔGintr CAVA (CAVA; [3]): ≥ -8.91 kcal/mol; ΔGobs CAVA (CAVA; [4]): ≥ -5.26 kcal/mol; ΔGintr CAIX (CAIX): -16.4 kcal/mol
"COC(=O)c1cc(S(N)(=O)=O)c(Cl)cc1S(=O)(=O)Cc1ccccc1 [Compound 9c, Methyl 2-benzylsulfonyl-4-chloro-5-sulfamoylbenzoate]",-10.7,-8.87,5.9,-14.5,-12.2,-14,-11.8,-13.2,-10.9,–,-12.2,-12.5,-9.94,-14.3,-11.1,-11.8,-14.9,-12.7,-12.2,8.2,ΔGintr CAIII (CAIII; [3]): -11.6 kcal/mol; ΔGobs CAIII (CAIII; [4]): -9.01 kcal/mol; ΔGintr CAXIII (CAXIII): -13.6 kcal/mol
"COC(=O)c1cc(S(N)(=O)=O)c(Cl)cc1S(=O)(=O)c1cccc2ccccc12 [Compound 9f, Methyl 4-chloro-2-(1-naphthylsulfonyl)-5-sulfamoylbenzoate]",-11.8,-9.7,3.8,-14.5,-11.9,-15.2,-12.6,-13,-10.4,-15.6,-13,-13.1,-10.3,-13.4,-9.94,-12.6,-14.5,-12,-11.4,8.4,ΔGintr CAXIII (CAXIII): -14.7 kcal/mol
